Measured values published in patent publication US20230233569A1 (Revolution Medicines, Inc., priority 2020, published 2023).
Like-named read-outs stand apart in the source and are kept apart here.

How the values were obtained:
NRAS Q61R = NRAS Q61R (Homo sapiens, UniProt P01111+P62937, Q61R); experiment: Disruption of BRAF RBD interaction with Ras (FRET / MOA assay, with Cyclophilin A); format: biochemical; details: NRAS Q61R; read-out: NRAS Q61R FRET data IC50
Source text: (§1) Disruption of B-Raf Ras-Binding Domain (BRAF^RBD) Interaction with K-Ras by Compounds of the Invention (Also Called a FRET Assay or an MOA Assay)
(§2) Note—The following protocol describes a procedure for monitoring disruption of K-Ras G12C (GMP-PNP) binding to BRAF^RBD by a compound of the invention. This protocol may also be executed substituting other Ras proteins or nucleotides.
(§3) The purpose of this biochemical assay was to measure the ability of test compounds to facilitate ternary complex formation between a nucleotide-loaded K-Ras isoform and Cyclophilin A; the resulting ternary complex disrupts binding to a BRAF^RBD construct, inhibiting K-Ras signaling through a RAF effector. Data is reported as IC50 values.
(§4) In assay buffer containing 25 mM HEPES pH 7.3, 0.002% Tween20, 0.1% BSA, 100 mM NaCl and 5 mM MgCl2, tagless Cyclophilin A, His6-K-Ras-GMPPNP, and GST-BRAF^RBD were combined in a 384-well assay plate at final concentrations of 25 μM, 12.5 nM and 50 nM, respectively. Compound was present in plate wells as a 10-point 3-fold dilution series starting at a final concentration of 30 μM. After incubation at 25° C. for 3 hours, a mixture of Anti-His Eu-W1024 and anti-GST allophycocyanin was then added to assay sample wells at final concentrations of 10 nM and 50 nM, respectively, and the reaction incubated for an additional 1.5 hours. […] Compounds that facilitate disruption of a K-Ras:RAF complex were identified as those eliciting a decrease in the TR-FRET ratio relative to DMSO control wells.
as §3, with “BRAF^RBDD” for “BRAF^RBD”

NCI-H358 (K-Ras G12C) = experiment: CellTiter-Glo cell viability assay, 5-day treatment; format: cell-based; details: Homo sapiens, NCI-H358, 120 h
Summary of the method: (§5)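 Seeded cells received test compound by direct dispensing. On day 5 the plates sat at room temperature approximately 30 minutes, then luminescence was measured. Data were normalized to DMSO and curve-fitted with four parameters.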

NRAS Q61K = NRAS Q61K (Homo sapiens, UniProt P01111+P62937, Q61K); experiment: Disruption of BRAF RBD interaction with Ras (FRET / MOA assay, with Cyclophilin A); format: biochemical; details: NRAS Q61K; read-out: NRAS Q61K FRET data IC50
NRAS Q61K, sequence (P01111 whole entry Q61K): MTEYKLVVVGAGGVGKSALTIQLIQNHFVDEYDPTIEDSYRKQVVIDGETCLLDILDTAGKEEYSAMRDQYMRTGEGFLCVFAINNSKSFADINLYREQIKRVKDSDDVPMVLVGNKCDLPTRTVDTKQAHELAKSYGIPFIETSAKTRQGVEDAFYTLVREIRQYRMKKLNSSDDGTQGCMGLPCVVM
NRAS Q61K, sequence (P62937 whole entry): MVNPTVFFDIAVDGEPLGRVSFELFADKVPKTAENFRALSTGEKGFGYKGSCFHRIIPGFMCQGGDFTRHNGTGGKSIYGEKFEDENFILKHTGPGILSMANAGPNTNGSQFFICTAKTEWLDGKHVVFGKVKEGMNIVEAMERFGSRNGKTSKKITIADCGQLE
Source text: as §1, §2, §3, §4
as §3, with “BRAF^RBDD” for “BRAF^RBD”

KRAS G12V [1] = molecular target: T1, KRAS G12V (Homo sapiens, UniProt P01116+P62937, G12V); experiment: Ras-Raf disruption / FRET / MOA assay (BRAF RBD); format: biochemical; details: Ras-Raf disruption, with Cyclophilin A; read-out: KRAS G12V FRET data IC50
T1 sequence (P01116 1-169 isoform P01116-2 G12V limits assumed): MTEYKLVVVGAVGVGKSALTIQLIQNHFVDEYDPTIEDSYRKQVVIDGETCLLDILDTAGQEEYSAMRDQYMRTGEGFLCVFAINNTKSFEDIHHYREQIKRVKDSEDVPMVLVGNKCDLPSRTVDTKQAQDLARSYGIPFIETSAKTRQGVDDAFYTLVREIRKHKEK
T1 sequence (P62937 whole entry, the tested form may be a part): as the sequence (P62937 whole entry) above
Source text: Disruption of […] Ras-binding Domain (BRAF^RBD) Interaction with K-Ras by Compounds of the Invention (also Called a FRET Assay or an MOA Assay)
Note—The following protocol describes a procedure for monitoring disruption of K-Ras G12C (GMP-PNP) binding to BRAF^RBD by a compound of the invention. This protocol may also be executed substituting other Ras proteins or nucleotides, such as K-Ras G12D and K-Ras G13D.
as §3
as §4, with “12.5 nM,” for “12.5 nM”, “of anti-His” for “of Anti-His”

Capan-1 (K-Ras G12V) = experiment: CellTiter-Glo cell viability assay, 5-day treatment; format: cell-based; details: Homo sapiens, CAPAN-1, 120 h
Summary of the method: as §5

KRAS G13C = KRAS G13C (Homo sapiens, UniProt P01116+P62937, G13C); experiment: Disruption of BRAF RBD interaction with Ras (FRET / MOA assay, with Cyclophilin A); format: biochemical
KRAS G13C, sequence (P01116 1-169 isoform P01116-2 G13C): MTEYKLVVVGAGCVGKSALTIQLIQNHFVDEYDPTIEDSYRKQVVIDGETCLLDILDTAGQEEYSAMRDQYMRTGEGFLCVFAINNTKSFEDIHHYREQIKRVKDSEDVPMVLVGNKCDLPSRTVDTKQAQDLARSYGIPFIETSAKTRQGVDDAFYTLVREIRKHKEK
KRAS G13C, sequence (P62937 whole entry): as the sequence (P62937 whole entry) above
Summary of the method: (§6)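 Cyclophilin A-dependent ternary complex assay. K-Ras loaded with nucleotide; BRAF RBD as effector. Cpd top 30 μM final, 3 h at 25 °C. Readout: TR-FRET ratio, IC50.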

KRAS G13D = KRAS G13D (Homo sapiens, UniProt P01116+P62937, G13D); experiment: as above; format: biochemical
KRAS G13D, sequence (P01116 1-169 isoform P01116-2 G13D limits assumed): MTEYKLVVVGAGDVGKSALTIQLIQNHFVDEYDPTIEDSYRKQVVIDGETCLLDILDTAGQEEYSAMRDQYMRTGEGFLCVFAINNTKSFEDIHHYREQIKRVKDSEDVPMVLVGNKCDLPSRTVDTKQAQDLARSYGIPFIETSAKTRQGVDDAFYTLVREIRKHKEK
KRAS G13D, sequence (P62937 whole entry): as the sequence (P62937 whole entry) above
Summary of the method: as §6

KRAS G12S = KRAS G12S (Homo sapiens, UniProt P01116+P62937, G12S); experiment: as above; format: biochemical
KRAS G12S, sequence (P01116 1-169 isoform P01116-2 G12S limits assumed): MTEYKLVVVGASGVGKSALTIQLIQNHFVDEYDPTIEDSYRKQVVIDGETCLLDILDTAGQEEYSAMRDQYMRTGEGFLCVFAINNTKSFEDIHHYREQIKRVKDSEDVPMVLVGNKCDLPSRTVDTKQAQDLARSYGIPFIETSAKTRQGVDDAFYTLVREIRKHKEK
KRAS G12S, sequence (P62937 whole entry): as the sequence (P62937 whole entry) above
Summary of the method: as §6

KRAS WT = KRAS WT (Homo sapiens, UniProt P01116+P62937); experiment: as above; format: biochemical
KRAS WT, sequence (P01116 1-169 isoform P01116-2 limits assumed): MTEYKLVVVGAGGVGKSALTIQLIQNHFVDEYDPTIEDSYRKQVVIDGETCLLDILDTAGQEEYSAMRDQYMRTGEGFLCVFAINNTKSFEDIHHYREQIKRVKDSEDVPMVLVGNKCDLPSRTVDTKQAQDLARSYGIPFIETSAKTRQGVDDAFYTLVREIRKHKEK
KRAS WT, sequence (P62937 whole entry): as the sequence (P62937 whole entry) above
Summary of the method: as §6

KRAS G12V [2] = molecular target: T1, KRAS G12V; experiment: as above; format: biochemical
Summary of the method: as §6

NRAS G12C = NRAS G12C (Homo sapiens, UniProt P01111+P62937, G12C); experiment: as above; format: biochemical
NRAS G12C, sequence (P01111 whole entry G12C): as the sequence (P01111 whole entry Q61K) above, with G12C, K61Q counted along it
NRAS G12C, sequence (P62937 whole entry): as the sequence (P62937 whole entry) above

KRAS G12C = KRAS G12C (Homo sapiens, UniProt P01116+P62937, G12C); experiment: as above; format: biochemical
KRAS G12C, sequence (P01116 1-169 isoform P01116-2 G12C): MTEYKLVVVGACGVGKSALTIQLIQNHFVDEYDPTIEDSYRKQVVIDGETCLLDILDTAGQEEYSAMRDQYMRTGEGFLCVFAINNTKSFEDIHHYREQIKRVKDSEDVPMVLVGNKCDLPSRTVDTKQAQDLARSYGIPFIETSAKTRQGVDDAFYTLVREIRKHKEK
KRAS G12C, sequence (P62937 whole entry): as the sequence (P62937 whole entry) above
Summary of the method: as §6

KRAS G12D = KRAS G12D (Homo sapiens, UniProt P01116+P62937, G12D); experiment: as above; format: biochemical
KRAS G12D, sequence (P01116 1-169 isoform P01116-2 G12D limits assumed): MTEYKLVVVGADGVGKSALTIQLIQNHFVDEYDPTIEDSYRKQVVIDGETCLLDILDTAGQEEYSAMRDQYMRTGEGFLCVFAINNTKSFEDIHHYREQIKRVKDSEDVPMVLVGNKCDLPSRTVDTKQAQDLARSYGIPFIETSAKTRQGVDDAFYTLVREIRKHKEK
KRAS G12D, sequence (P62937 whole entry): as the sequence (P62937 whole entry) above
Summary of the method: as §6

[3] = 5-day treatment, read-out: H358 Cell Viability assay data (K-Ras G12C, IC50)
[4] = 5-day treatment, read-out: Capan-1 Cell Viability assay data (K-Ras G12V, IC50)
[5] = read-out: KRAS G13C FRET data, IC50
[6] = KRAS G13D, read-out: KRAS G13D FRET data IC50
[7] = read-out: KRAS G12S FRET data, IC50
[8] = KRAS WT, read-out: KRAS WT FRET data IC50
[9] = KRAS G12V, read-out: KRAS G12V FRET data IC50
[10] = NRAS G12C, read-out: NRAS G12C FRET data IC50
[11] = read-out: KRAS G12C FRET data, IC50
[12] = read-out: KRAS G12D FRET data, IC50

NRAS Q61R, sequence (P01111 whole entry Q61R, the tested form may be a part): as the sequence (P01111 whole entry Q61K) above, with K61R counted along it
NRAS Q61R, sequence (P62937 whole entry, the tested form may be a part): as the sequence (P62937 whole entry) above

SMILES | IC50 (NCI-H358 (K-Ras G12C); [3]) [µM] | IC50 (KRAS G13C; [5]) [nM] | IC50 (KRAS G13D; [6]) [nM] | IC50 (KRAS G12S; [7]) [nM] | IC50 (KRAS WT; [8]) [nM] | IC50 (KRAS G12V [2]; [9]) [nM] | IC50 (NRAS G12C; [10]) [nM] | IC50 (KRAS G12C; [11]) [nM] | IC50 (KRAS G12D; [12]) [nM] | IC50 (Capan-1 (K-Ras G12V); [4]) [µM] | other results
CCn1c(-c2cccnc2[C@H](C)OC)c2c3cc(ccc31)-c1csc(n1)C[C@H](NC(=O)[C@H](C(C)C)N(C)C(=O)N1CCO[C@H](C)C1)C(=O)N1CCC[C@H](N1)C(=O)OCC(C)(C)C2 [Example A310] | – | – | – | – | – | – | – | – | – | – | IC50 (NRAS Q61R): 10 to 100 nM
CCC[C@H]1CCN1C(=O)N[C@H]1Cc2nc(cs2)-c2ccc3c(c2)c(c(-c2cccnc2[C@H](C)OC)n3CC)CC(C)(C)COC(=O)[C@@H]2CCCN(N2)C1=O [Example A264] | – | – | – | – | – | – | – | – | – | – | IC50 (NRAS Q61R): 100 to 1000 nM
CCn1c(-c2cccnc2[C@H](C)OC)c2c3cc(ccc31)-c1csc(n1)C[C@H](NC(=O)[C@H](C(C)C)N(C)C(=O)N1CC(C(C)(C)O)C1)C(=O)N1CCC[C@H](N1)C(=O)OCC(C)(C)C2 (atropisomer, axis not shown) [Example A289] | < 0.01 | – | – | – | – | – | – | – | – | – | IC50 (NRAS Q61K): 10 to 100 nM
CCn1c(-c2cnccc2COC)c2c3cc(ccc31)-c1cccc(c1)C[C@H](NC(=O)[C@H](C(C)C)N(C)C(=O)CCCN=C=NCCCOC)C(=O)N1CCC[C@H](N1)C(=O)OCC(C)(C)C2 [69 A and B] | – | – | – | – | – | – | – | – | – | – | IC50 (KRAS G12V [1]): 1 to 10 µM
CCn1c(-c2cccnc2[C@H](C)OC)c2c3cc(ccc31)-c1cc(O)cc(c1)C[C@H](NC(=O)[C@H](C(C)C)N(C)C(=O)[C@H]1CCN(C(=O)C(C)(C)N(C)C)C1)C(=O)N1CCC[C@H](N1)C(=O)OCC(C)(C)C2 (atropisomer, axis not shown) [Example A114] | 0.01 to 0.1 | 10 to 100 | 10 to 100 | 10 to 100 | 10 to 100 | 10 to 100 | 10 to 100 | 10 to 100 | 100 to 1000 | 0.01 to 0.1 | –
CCn1c(-c2cnccc2COC)c2c3cc(ccc31)-c1cc(O)cc(c1)C[C@H](NC(=O)[C@H](C(C)C)N(C)C(=O)[C@@H]1NC[C@@H]3C[C@@H]31)C(=O)N1CCC[C@H](N1)C(=O)OCC(C)(C)C2 [Example A78] | – | – | – | – | – | – | – | – | – | – | IC50 (NCI-H358 (K-Ras G12C); read-out: H358 Cell Viability assay data (K-Ras G12C, IC50, uM), 5-day treatment): 0.1 to 1 µM; IC50 (Capan-1 (K-Ras G12V); read-out: Capan-1 Cell Viability assay data (K-Ras G12V, IC50, uM)): 1 to 10 µM; IC50 (KRAS G13C; KRAS G13C FRET data, IC50): 10 to 100 nM; IC50 (KRAS G13D; KRAS G13D FRET data IC50, KRAS G13D): 100 to 1000 nM; IC50 (KRAS G12S; KRAS G12S FRET data, IC50): 100 to 1000 nM; IC50 (KRAS WT; KRAS WT FRET data IC50, KRAS WT): 100 to 1000 nM; IC50 (KRAS G12V [2]; KRAS G12V FRET data IC50, KRAS G12V): 100 to 1000 nM; IC50 (NRAS G12C; NRAS G12C FRET data IC50, NRAS G12C): 100 to 1000 nM; IC50 (KRAS G12C; KRAS G12C FRET data, IC50): 100 to 1000 nM; IC50 (KRAS G12D; KRAS G12D FRET data, IC50): 100 to 1000 nM
CCn1c(-c2cccnc2[C@H](C)OC)c2c3cc(ccc31)-c1cc(O)cc(c1)C[C@H](NC(=O)[C@H](C(C)C)N(C)C(=O)[C@H]1CCCNC1)C(=O)N1CCC[C@H](N1)C(=O)OCC(C)(C)C2 [Example A243] | 0.1 to 1 | 10 to 100 | 10 to 100 | 10 to 100 | 10 to 100 | 100 to 1000 | 10 to 100 | 10 to 100 | 10 to 100 | > 10 | –
CCn1c(-c2cccnc2[C@H](C)OC)c2c3cc(ccc31)-c1cc(O)cc(c1)C[C@H](NC(=O)[C@H](C(C)C)N(C)C(=O)O[C@H]1CCOC1)C(=O)N1CCC[C@H](N1)C(=O)OCC(C)(C)C2 [Example A209] | 0.1 to 1 | 100 to 1000 | 100 to 1000 | 100 to 1000 | 100 to 1000 | 100 to 1000 | 100 to 1000 | 100 to 1000 | 100 to 1000 | 0.1 to 1 | –
CCn1c(-c2cccnc2[C@H](C)OC)c2c3cc(ccc31)-c1cc(O)cc(c1)C[C@H](NC(=O)[C@H](C(C)C)N(C)C(=O)[C@H]1C[C@H](O)C1)C(=O)N1CCC[C@H](N1)C(=O)OCC(C)(C)C2 [Example A241] | 0.1 to 1 | 10 to 100 | 100 to 1000 | 100 to 1000 | 10 to 100 | 100 to 1000 | 100 to 1000 | 10 to 100 | 100 to 1000 | 0.1 to 1 | –

Second part, led by results:

IC50 (NCI-H358 (K-Ras G12C); [3]) [µM] | IC50 (KRAS G13C; [5]) [nM] | IC50 (KRAS G13D; [6]) [nM] | IC50 (KRAS G12S; [7]) [nM] | IC50 (KRAS WT; [8]) [nM] | IC50 (KRAS G12V [2]; [9]) [nM] | IC50 (NRAS G12C; [10]) [nM] | IC50 (KRAS G12C; [11]) [nM] | IC50 (KRAS G12D; [12]) [nM] | SMILES | IC50 (Capan-1 (K-Ras G12V); [4]) [µM] | other results
0.01 to 0.1 | 100 to 1000 | 100 to 1000 | 100 to 1000 | 100 to 1000 | 100 to 1000 | 100 to 1000 | 100 to 1000 | 1000 to 10000 | CCN(C(=O)N(C)[C@H](C(=O)N[C@H]1Cc2nc(cs2)-c2ccc3c(c2)c(c(-c2cccnc2[C@H](C)OC)n3CC)CC(C)(C)COC(=O)[C@@H]2CCCN(N2)C1=O)C(C)C)C1CC1 [Example A352] | 0.1 to 1 | –
0.1 to 1 | 1000 to 10000 | 1000 to 10000 | 1000 to 10000 | 1000 to 10000 | 1000 to 10000 | 1000 to 10000 | 1000 to 10000 | 1000 to 10000 | CCn1c(-c2cccnc2[C@H](C)OC)c2c3cc(ccc31)-c1csc(n1)C[C@H](NC(=O)[C@H](C(C)C)N(C)C(=O)[C@@H]1C[C@@H]1C)C(=O)N1CCC[C@H](N1)C(=O)OCC(C)(C)C2 [Example A239] | 0.1 to 1 | –
